For one assay, the target named is BACE2 (Homo sapiens (Human), UniProt Q9Y5Z0). Put plainly: In vitro enzymatic BACE2 FRET assay. Particulars: read-out: IC50 IP (μM) BACE2 Enzyme. Format: biochemical.
The target of the next assay is Cathepsin D (CatD) (Homo sapiens (Human), UniProt P07339). Put plainly: CatD assay. Format: biochemical. Particulars: read-out: IC50 IP (μM) CatD.

We go through 22 compounds from US10246429B2, “Vinyl fluoride cyclopropyl fused thiazin-2-amine compounds as beta-secretase inhibitors and methods of use” (AMGEN INC., priority 2015, dated 2019).

Sequence of Cathepsin D (CatD) (P07339 65-412, species assumed): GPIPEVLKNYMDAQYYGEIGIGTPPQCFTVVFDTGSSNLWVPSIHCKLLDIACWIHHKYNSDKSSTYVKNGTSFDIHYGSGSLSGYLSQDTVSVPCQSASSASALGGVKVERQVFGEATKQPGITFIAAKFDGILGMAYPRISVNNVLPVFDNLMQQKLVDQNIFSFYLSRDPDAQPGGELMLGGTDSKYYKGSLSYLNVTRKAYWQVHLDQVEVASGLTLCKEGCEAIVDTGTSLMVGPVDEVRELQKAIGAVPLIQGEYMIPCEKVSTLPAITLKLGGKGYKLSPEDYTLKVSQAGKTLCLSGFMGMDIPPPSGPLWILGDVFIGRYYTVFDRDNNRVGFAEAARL
Sequence of BACE2 (Q9Y5Z0 63-518): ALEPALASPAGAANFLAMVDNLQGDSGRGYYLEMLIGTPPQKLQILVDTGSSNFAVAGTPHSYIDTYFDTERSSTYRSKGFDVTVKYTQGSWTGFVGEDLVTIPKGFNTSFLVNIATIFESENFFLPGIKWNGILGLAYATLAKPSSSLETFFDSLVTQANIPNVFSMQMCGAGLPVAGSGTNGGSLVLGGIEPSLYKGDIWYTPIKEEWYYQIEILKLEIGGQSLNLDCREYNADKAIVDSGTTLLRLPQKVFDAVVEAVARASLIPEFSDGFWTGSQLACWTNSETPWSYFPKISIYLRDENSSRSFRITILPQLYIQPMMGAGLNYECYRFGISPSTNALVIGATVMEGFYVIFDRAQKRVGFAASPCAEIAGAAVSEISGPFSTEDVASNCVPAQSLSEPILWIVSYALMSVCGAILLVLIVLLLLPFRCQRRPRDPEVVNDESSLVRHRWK
From the text for BACE2: In Vitro Enzymatic BACE1 and BACE2 FRET (Fluorescence Resonance Energy Transfer) Assays (Enzyme Assay Data in Table 1)

`C[C@]1(c2cc(/C=C(\F)c3ccc(C#N)cn3)ccc2F)N=C(N)S[C@@]2(C(=O)N3CCNC(=O)C3)C[C@H]21` [Example 144, 6-((Z)-2-(3-((1S,5S,6S)-3-amino-5-methyl-1-(3-oxopiperazine-1-carbonyl)-2-thia-4-azabicyclo[4.1.0]hept-3-en-5-yl)-4-fluorophenyl)-1-fluorovinyl)nicotinonitrile]: the IC50 (in general, the midpoint of a concentration-inhibition curve) at BACE2 was 0.0282 µM; on Cathepsin D (CatD) it was 400 µM.
The like results for `CC1CCCN(C(=O)[C@]23C[C@H]2[C@@](C)(c2cc(/C=C(\F)c4ccc(C#N)cn4)ccc2F)N=C(N)S3)C1` (stereo partly drawn) [Example 145, 6-((Z)-2-(3-((1S,5S,6S)-3-amino-5-methyl-1-(3-methylpiperidine-1-carbonyl)-2-thia-4-azabicyclo[4.1.0]hept-3-en-5-yl)-4-fluorophenyl)-1-fluorovinyl)nicotinonitrile] were, in that order, 0.0174 µM and 42.6 µM.
Turning to `COC(=O)[C@]12C[C@H]1[C@@](C)(c1cc(/C=C(\F)c3cnc(Br)cn3)ccc1F)N=C(N)S2` [Example 148, (1S,5S,6S)-methyl 3-amino-5-(5-((Z)-2-(5-bromopyrazin-2-yl)-2-fluorovinyl)-2-fluorophenyl)-5-methyl-2-thia-4-azabicyclo[4.1.0]hept-3-ene-1-carboxylate], the IC50 on BACE2 was found to be 1.03 µM; on Cathepsin D (CatD), 231 µM.
As to `C#CCOc1cnc(/C(F)=C/c2ccc(F)c([C@@]3(C)N=C(N)S[C@@]4(C(=O)N(C)C)C[C@H]43)c2)cn1` [Example 153, (1S,5S,6S)-3-amino-5-(2-fluoro-5-((Z)-2-fluoro-2-(5-(prop-2-yn-1-yloxy)pyrazin-2-yl)vinyl)phenyl)-N,N,5-trimethyl-2-thia-4-azabicyclo[4.1.0]hept-3-ene-1-carboxamide], the values for the IC50 on BACE2 and at Cathepsin D (CatD) were 0.0518 µM and 106 µM, respectively.
The like results for `CN(C)C(=O)[C@]12C[C@H]1[C@@](C)(c1cc(/C=C(\F)c3cnc(OCC(F)(F)F)cn3)ccc1F)N=C(N)S2` [Example 155, (1S,5S,6S)-3-amino-5-(2-fluoro-5-((Z)-2-fluoro-2-(5-(2,2,2-trifluoroethoxy)pyrazin-2-yl)vinyl)phenyl)-N,N,5-trimethyl-2-thia-4-azabicyclo[4.1.0]hept-3-ene-1-carboxamide] were, in that order, 0.0823 µM and 167 µM.
In the case of `CC(Oc1cnc(/C(F)=C/c2ccc(F)c([C@@]3(C)N=C(N)S[C@@]4(C(=O)N(C)C)C[C@H]43)c2)cn1)c1ncco1` (stereo partly drawn) [Example 156, (1S,5S,6S)-3-amino-5-(2-fluoro-5-((Z)-2-fluoro-2-(5-(-1-(oxazol-2-yl)ethoxy)pyrazin-2-yl)vinyl)phenyl)-N,N,5-trimethyl-2-thia-4-azabicyclo[4.1.0]hept-3-ene-1-carboxamide], the IC50 on BACE2 is 0.135 µM; on Cathepsin D (CatD), 93.8 µM.
For `CN(C)C(=O)[C@]12C[C@H]1[C@@](C)(c1cc(/C=C(\F)c3cnc(Br)cn3)ccc1F)N=C(N)S2` [Example 157, (1S,5S,6S)-3-amino-5-(5-((Z)-2-(5-bromopyrazin-2-yl)-2-fluorovinyl)-2-fluorophenyl)-N,N,5-trimethyl-2-thia-4-azabicyclo[4.1.0]hept-3-ene-1-carboxamide] the same measures were 0.0262 µM and 39.1 µM.
Consider `CN(C)C(=O)[C@]12C[C@H]1[C@@](C)(c1cc(/C=C(\F)c3cnc(C#N)cn3)ccc1F)N=C(N)S2` [Example 169, (1S,5S,6S)-3-amino-5-(5-((Z)-2-(5-cyanopyrazin-2-yl)-2-fluorovinyl)-2-fluorophenyl)-N,N,5-trimethyl-2-thia-4-azabicyclo[4.1.0]hept-3-ene-1-carboxamide], for which the IC50 at BACE2 is 0.0174 µM; at Cathepsin D (CatD), 95.5 µM.
For `CN(C)C(=O)[C@]12C[C@H]1[C@@](C)(c1cc(/C=C(\F)c3ncc(C#N)cn3)ccc1F)N=C(N)S2` [Example 170, (1S,5S,6S)-3-amino-5-(5-((Z)-2-(5-cyanopyrimidin-2-yl)-2-fluorovinyl)-2-fluorophenyl)-N,N,5-trimethyl-2-thia-4-azabicyclo[4.1.0]hept-3-ene-1-carboxamide] the same measures were 0.00305 µM and 1700 µM.
For `CN(C)C(=O)[C@]12C[C@H]1[C@@](C)(c1cc(/C=C(\F)c3ccc(C#N)nc3)ccc1F)N=C(N)S2` [Example 171, (1S,5S,6S)-3-amino-5-(5-((Z)-2-(6-cyanopyridin-3-yl)-2-fluorovinyl)-2-fluorophenyl)-N,N,5-trimethyl-2-thia-4-azabicyclo[4.1.0]hept-3-ene-1-carboxamide] the same measures were 0.642 µM and 824 µM.
The like results for `CN(C)C(=O)[C@]12C[C@H]1[C@@](C)(c1cc(/C=C(\F)c3ccc(C#N)cc3F)ccc1F)N=C(N)S2` [Example 172, (1S,5S,6S)-3-amino-5-(5-((Z)-2-(4-cyano-2-fluorophenyl)-2-fluorovinyl)-2-fluorophenyl)-N,N,5-trimethyl-2-thia-4-azabicyclo[4.1.0]hept-3-ene-1-carboxamide] were, in that order, 0.146 µM and 202 µM.
Take `CN(C)C(=O)[C@]12C[C@H]1[C@@](C)(c1cc(/C=C(\F)c3ccc(C#N)nn3)ccc1F)N=C(N)S2` [Example 174, (1S,5S,6S)-3-amino-5-(5-((Z)-2-(6-cyanopyridazin-3-yl)-2-fluorovinyl)-2-fluorophenyl)-N,N,5-trimethyl-2-thia-4-azabicyclo[4.1.0]hept-3-ene-1-carboxamide]: the results for the half-inhibitory concentration (IC50) on BACE2 and at Cathepsin D (CatD) were 0.406 µM and 280 µM, respectively.
Turning to `CNC(=O)[C@]12C[C@H]1[C@@](C)(c1cc(/C=C(\F)c3ccc(Cl)cn3)ccc1F)N=C(N)S2` [Example 175, (1S,5S,6S)-3-amino-5-(5-((Z)-2-(5-chloropyridin-2-yl)-2-fluorovinyl)-2-fluorophenyl)-N,5-dimethyl-2-thia-4-azabicyclo[4.1.0]hept-3-ene-1-carboxamide], the IC50 at BACE2 amounted to 0.0364 µM; at Cathepsin D (CatD), 204 µM.
For `CN(C)C(=O)[C@]12C[C@H]1[C@@](C)(c1cc(/C=C(\F)c3ccc(Cl)cn3)cnc1F)N=C(N)S2` [Example 178, (1S,5S,6S)-3-amino-5-(5-((Z)-2-(5-chloropyridin-2-yl)-2-fluorovinyl)-2-fluoropyridin-3-yl)-N,N,5-trimethyl-2-thia-4-azabicyclo[4.1.0]hept-3-ene-1-carboxamide] the same measures were 0.00574 µM and 609 µM.
The like results for `CN(C)C(=O)[C@]12C[C@H]1[C@@](C)(c1cc(/C=C(\F)c3ccc(C#N)cn3)cnc1F)N=C(N)S2` [Example 180, (1S,5S,6S)-3-amino-5-(5-((Z)-2-(5-cyanopyridin-2-yl)-2-fluorovinyl)-2-fluoropyridin-3-yl)-N,N,5-trimethyl-2-thia-4-azabicyclo[4.1.0]hept-3-ene-1-carboxamide] were, in that order, 0.023 µM and above 400 µM.
For `C[C@]1(c2cc(/C=C(\F)c3ccc(C#N)cn3)cnc2F)N=C(N)S[C@@]2(C(=O)N3CCOCC3)C[C@H]21` [Example 183, 6-((Z)-2-(5-((1S,5S,6S)-3-amino-5-methyl-1-(morpholine-4-carbonyl)-2-thia-4-azabicyclo[4.1.0]hept-3-en-5-yl)-6-fluoropyridin-3-yl)-1-fluorovinyl)nicotinonitrile] the same measures were 0.241 µM and 2140 µM.
`CN(C)C(=O)[C@]12C[C@H]1[C@@](C)(c1cc(/C=C\F)ccc1F)N=C(N)S2` [Example 208, (1S,5S,6S)-3-amino-5-(2-fluoro-5-((Z)-2-fluorovinyl)phenyl)-N,N,5-trimethyl-2-thia-4-azabicyclo[4.1.0]hept-3-ene-1-carboxamide]: the IC50 on BACE2 was determined as 0.117 µM; on Cathepsin D (CatD) it was 9.28 µM.
The like results for `Cc1nnc(COc2cnc(/C(F)=C/c3ccc(F)c([C@@]4(C)N=C(N)S[C@@]5(S(C)(=O)=O)C[C@H]54)c3)cn2)o1` [Example 228, (1R,5S,6S)-5-(2-fluoro-5-((Z)-2-fluoro-2-(5-((5-methyl-1,3,4-oxadiazol-2-yl)methoxy)pyrazin-2-yl)vinyl)phenyl)-5-methyl-1-(methylsulfonyl)-2-thia-4-azabicyclo[4.1.0]hept-3-en-3-amine] were, in that order, 0.292 µM and 46.3 µM.
For `CN(C)C(=O)[C@]12C[C@H]1[C@@](C)(c1cc(/C=C(\F)c3cc4nccnc4cn3)ccc1F)N=C(N)S2` [Example 247, (1S,5S,6S)-3-amino-5-(2-fluoro-5-((Z)-2-fluoro-2-(pyrido[3,4-b]pyrazin-7-yl)vinyl)phenyl)-N,N,5-trimethyl-2-thia-4-azabicyclo[4.1.0]hept-3-ene-1-carboxamide] the same measures were 0.385 µM and 1190 µM.
Consider `C[C@]1(c2cc(/C=C(\F)c3cnc(Cl)cn3)ccc2F)N=C(N)S[C@]2(CO)[C@H]1C2(F)F` [Example 252, ((1S,5S,6R)-3-amino-5-(5-((Z)-2-(5-chloropyrazin-2-yl)-2-fluorovinyl)-2-fluorophenyl)-7,7-difluoro-5-methyl-2-thia-4-azabicyclo[4.1.0]hept-3-en-1-yl)methanol], for which the IC50 on BACE2 was found to be 0.151 µM; on Cathepsin D (CatD), 158 µM.
As for `COC(=O)[C@@]12SC(N)=N[C@](C)(c3cc(/C=C(\F)c4ccc(C#N)cn4)ccc3F)[C@@H]1C2(F)F` [Example 256, (1S,5S,6R)-methyl 3-amino-5-(5-((Z)-2-(5-cyanopyridin-2-yl)-2-fluorovinyl)-2-fluorophenyl)-7,7-difluoro-5-methyl-2-thia-4-azabicyclo[4.1.0]hept-3-ene-1-carboxylate], the concentration for half-maximal inhibition (IC50) at BACE2 turned out to be 0.252 µM; on Cathepsin D (CatD) it was 760 µM.
For `COC[C@@]12SC(N)=N[C@](C)(c3cc(/C=C(\F)c4ccc(C#N)cn4)ccc3F)[C@@H]1C2(F)F` [Example 258, 6-((Z)-2-(3-((1S,5S,6R)-3-amino-7,7-difluoro-1-(methoxymethyl)-5-methyl-2-thia-4-azabicyclo[4.1.0]hept-3-en-5-yl)-4-fluorophenyl)-1-fluorovinyl)nicotinonitrile] the same measures were 0.118 µM and 90.7 µM.
